Source: patent publication US7846934B2, “Furo[3,2-B] pyrrol-3-one derivatives and their use as cysteinyl proteinase inhibitors” (Amura Therapeutics Limited, priority 2007, dated 2010)

Key:
[1] = tested on: rat osteoclasts; test: Rat osteoclast resorption assay; conditions: read-out: Cell-based % Inh. @ 1 μM Rat
Method: Bone resorption was studied using a model where mature osteoclasts derived from rat bone were cultured on bovine bone slices for 3 days and allowed to resorb bone in the presence of inhibitor, positive control (E-64) or vehicle. More specifically, tibia, femori and humeri were removed from 1 day old rat pups. The endosteal surfaces of the bones were scraped with a scapelto release osteoclasts into the culture medium and the osteoclasts were allowed to attach to bovine bone slices. After the culture period, bone collagen degradation products were quantified from the culture medium as an index of bone resorption. The assay was performed by Pharmatest Services Ltd, Itäinen Pitkakatu 4C, Turku, Finland.

[2] = tested on: human osteoclasts; test: Human osteoclast resorption assay; format: cell-based; conditions: for inhibition at 1 µM: Homo sapiens, Osteoclast, read-out: Cell-based % Inh. @ 1 μM Human
Method: Bone resorption was studied using a model where human osteoclast precursor cells were cultured on bovine bone slices for 9 days and allowed to differentiate into bone-resorbing osteoclasts. The formed mature osteoclasts were then allowed to resorb bone. The assay was performed by Pharmatest Services Ltd, Itäinen Pitkakatu 4C, Turku, Finland. After the culture period, bone collagen degradation products were quantified from the culture medium as an index of bone resorption. Inhibitor compounds were added into the cell cultures after the differentiation period and their effects on the resorbing activity of mature osteoclasts were determined. The studies included a baseline group without added compounds and a positive control group where a potent cathepsin K inhibitor E-64 was added.
Human peripheral blood monocytes were suspended to culture medium and allowed to attach to bovine bone slices. The bone slices were transferred into 96-well tissue culture plates containing culture medium with appropriate amounts of important growth factors favouring osteoclast differentiation, including M-CSF, RANK-ligand and TGF-β. The cells were incubated in a CO2 incubator in humidified atmosphere of 95% air and 5% carbon dioxide at 37° C. At day 7 when osteoclast differentiation was complete, the culture medium was replaced with culture medium containing conditions favouring osteoclast activity. The cell culture was continued for an additional 2 days, during which the formed mature osteoclasts were allowed to resorb bone in the presence of vehicle, control inhibitor (E64) or test compounds. At the end of the culture, bone collagen degradation products released into the culture medium were determined using a commercially available ELISA method (CrossLaps® for culture, Nordic Bioscience, Herlev, Denmark) as an index of bone resorption (see Bagger, Y. Z. et al, J. Bone. Miner. Res. 14 (suppl. 1), S370).

[3] = Liver microsomal incubations (HLM stability); conditions: human liver microsomes, 25 μM
[4] = Plasma incubations (human plasma stability); conditions: 37° C., 25 μM
Method: Human and rat plasma were purchased from Innovative Research Inc. (Southfield. Mich., USA). […] Aliquots were removed at 2 and 60 minutes and quenched with an equal volume of cold acetonitrile. After mixing vigorously, the precipitated protein matter was removed by filtration (Multiscreen Solvinert filter plates, Millipore, Bedford, Mass., USA) and the filtrate analysed by reverse phase HPLC with mass spectrometric detection, using single ion monitoring of the [M+H]^+ species. Metabolic turnover was determined by comparison of peak areas from the ion chromatograms of the parent compound at 2 and 60 minutes and expressed as percent remaining at 1 hour.

[5] = molecular target: T1, Human recombinant cathepsin K (Homo sapiens, UniProt P43235); test: In vitro cathepsin Ki inhibition measurements; format: biochemical; conditions: Table 1; read-out: In vitro Ki (nM) vs Cath K
T1 construct: B. Turk, Josef Stefan Institute, Ljubljana, Slovenia (academic supplier)
T1 sequence (P43235 115-329): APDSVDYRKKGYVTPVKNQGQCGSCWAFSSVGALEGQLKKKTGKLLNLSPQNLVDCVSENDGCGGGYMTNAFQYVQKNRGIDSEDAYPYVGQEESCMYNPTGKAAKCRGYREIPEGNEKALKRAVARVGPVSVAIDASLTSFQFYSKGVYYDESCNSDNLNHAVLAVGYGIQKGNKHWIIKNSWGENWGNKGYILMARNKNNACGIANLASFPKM
Method: Stock solutions of substrate or inhibitor were made up to 10 mM in 100% dimethylsulfoxide (DMSO) (Rathburns, Glasgow, U.K.) and diluted as appropriately required. In all cases the DMSO concentration in the assays was maintained at less than 1% (vol./vol.). The equilibrium inhibition constants (Ki^SS) for each compound were measured under steady-state conditions monitoring enzyme activity as a function of inhibitor concentration. The values were calculated on the assumption of pure competitive behaviour (Comish-Bowden, A. Fundamentals of enzyme kinetics Portland Press; 1995, 93-128).
The apparent inhibition constant (Ki) for each compound was determined on the basis that inhibition was reversible and occurred by a pure-competitive mechanism. The Ki values were calculated, from the dependence of enzyme activity as a function of inhibitor concentration, by direct regression analysis (Prism v 3.02) using Equation 2 (Cornish-Bowden, A., 1995).
In situations where the apparent dissociation constant (Ki^app) approached the enzyme concentrations, the Ki^app values were calculated using a quadratic solution in the form described by Equation 3 (Morrison, J. F. Trends Biochem. Sci., 7, 102-105, 1982; Morrison, J. F. Biochim. Biophys. Acta, 185 269-286, 1969; Stone, S. R. and Hofsteenge, J. Biochemistry, 25, 4622-4628, 1986).
Curves were fitted by non-linear regression analysis (Prism) using a fixed value for the enzyme concentration. Equation 4 was used to account for the substrate kinetics, where ‘Ki’ is the inhibition constant, ‘[S0]’ is the initial substrate concentration and ‘KM^app’ is the apparent macroscopic binding (Michaelis) constant for the substrate (Morrison, 1982).

[6] = LogD determinations (shake-flask, octanol/PBS); conditions: 1-octanol/phosphate buffered saline, pH 7.4
Method: LogD(PBS) determinations were performed in 96 well microtitre plates using a miniaturised “shake-flask” method. […] The plates were then capped and mixed vigorously for 1 hour on a microtitre plate shaker, after which they were left to stand, allowing the PBS and octanol phases to separate. The PBS layer was analysed by reverse phase HPLC with mass spectrometric detection, using single ion monitoring of the [M+H]^+ species.
[formula] Where AUCstd and AUCpbs are the peak areas from the standard and test ion chromatograms respectively.

[7] = tested on: human osteoclasts; conditions: literature value; cited from earlier work

Row | Compound | inhibition at 1 µM [1] [%] | inhibition at 1 µM [2] [%] | HLM % rem. @ 1 hr [3] [%] | Human Plasma Stability % rem. @ 1 H [4] [%] | Ki [5] [nM] | Cell-based % Inh. @ 1 μM Human [2] [%] | logD at 1 h [6] | Cell-based % Inh. @ 1 μM Human (Lit.) [7] | LogD pH 7.4
1 | CC(C)C[C@H](NC(=O)c1ccc(N2CCN(C)CC2)cc1)C(=O)N1CC[C@H]2OCC(=O)[C@H]21 [Example 1, 4-(4-methylpiperazin-1-yl)-N-((S)-4-methyl-1-oxo-1-((3aS,6aR)-3-oxodihydro-2H-furo[3,2-b]pyrrol-4(5H, 6H, 6aH)-yl)pentan-2-yl)benzamide, reference compound] | 43 | 55 | 95 | 95 |  |  |  |  | 
2 | CN1CCN(c2ccc(C(=O)N[C@H](C(=O)N3CC[C@H]4OCC(=O)[C@H]43)C3CCCCC3)cc2)CC1 [Example 2, N-((S)-1-cyclohexyl-2-oxo-2-((3aS,6aR)-3-oxodihydro-2H-furo[3,2-b]pyrrol-4(5H,6H,6aH)-yl)ethyl)-4-(4-methylpiperazin-1-yl)benzamide] | 0 | 74 to 76 | 91 | 99 | 14 | 76 | 1.21 |  | 
3 | CN1CCN(c2ccc(C(=O)N[C@H](C(=O)N3CC[C@H]4OCC(=O)[C@H]43)C3CCCC3)cc2)CC1 [Example 3, N-((S)-1-cyclopentyl-2-oxo-2-((3aS,6aR)-3-oxodihydro-2H-furo[3,2-b]pyrrol-4(5H,6H,6aH)-yl)ethyl)-4-(4-methylpiperazin-1-yl)benzamide] | 60 | 74 to 76 | 91 | 97 | 2 | 74 | 0.78 |  | 
4 | CC(C)C[C@H](NC(=O)c1ccc(C(C)(C)C)cc1)C(=O)N1CC[C@H]2OCC(=O)[C@H]21 [reference compound] |  |  | 70 | 75 |  |  |  | Lit. 60% | 
5 | N-((S)-1-cyclopentyl-2-oxo-2-((3aS,6aR)-3-oxodihydro-2H-furo[3,2-b]pyrrol-4(5H,6H,6aH)-yl)ethyl)-4-(4-propylpiperazin-1-yl)benzamide [Example 17] |  |  |  |  | 7 | >80 |  |  | 1.55
